Assay results published in ChEMBL document CHEMBL4387723, “Ultrasonication-ionic liquid synergy for the synthesis of new potent anti-tuberculosis 1,2,4-triazol-1-yl-pyrazole based spirooxindolopyrrolizidines” (Bioorg Med Chem Lett, 2019).
≈ marks a conversion by molar mass, not a printed value.

Key:
[1] = tested on: Mycobacterium tuberculosis; experiment: Antitubercular activity against Mycobacterium tuberculosis H37Rv incubated for 7 days by microplate alamar blue assay; format: functional; conditions: 168 h
[2] = tested on: Mycobacterium tuberculosis; experiment: Potency index, ratio of ethambutol MIC to test compound MIC for antitubercular activity against Mycobacterium tuberculosis H37Rv incubated for […] by microplate alamar blue assay; format: functional
[3] = Cytotoxicity against mouse RAW264.7 cells assessed as reduction in cell viability at 25 ug/ml incubated for 48 hrs by MTT assay relative to control; format: cell-based; conditions: read-out: INH

SMILES	MIC [1] [µg/mL]	Ratio [2]	cytotoxicity at 48 h, 25 ug/ml [3] [%]
Cc1nn(-c2ccccc2)c(-n2cncn2)c1C1C2CCCN2C2(C(=O)Nc3ccc(Cl)cc32)C1C(=O)c1ccccc1 (stereo unspecified)	0.78 (≈ 1.32 µM)	>1	19.8
COc1ccc(C(=O)C2C(c3c(C)nn(-c4ccccc4)c3-n3cncn3)C3CCCN3C23C(=O)Nc2ccccc23)cc1 (stereo unspecified)	12.5 (≈ 21.3 µM)		
Cc1nn(-c2ccccc2)c(-n2cncn2)c1C1C2CCCN2C2(C(=O)Nc3ccccc32)C1C(=O)c1ccccc1 (stereo unspecified)	> 25		
Cc1nn(-c2ccccc2)c(-n2cncn2)c1C1C2CCCN2C2(C(=O)Nc3ccccc32)C1C(=O)c1ccc(Br)cc1 (stereo unspecified)	1.56 (≈ 2.46 µM)		27.1
Cc1nn(-c2ccccc2)c(-n2cncn2)c1C1C2CCCN2C2(C(=O)Nc3ccc(Br)cc32)C1C(=O)c1ccc(Cl)cc1 (stereo unspecified)	1.56 (≈ 2.33 µM)		22.4
Cc1nn(-c2ccccc2)c(-n2cncn2)c1C1C2CCCN2C2(C(=O)Nc3ccc(Cl)cc32)C1C(=O)c1ccc([N+](=O)[O-])cc1 (stereo unspecified)	1.56 (≈ 2.46 µM)		24.9
Cc1nn(-c2ccccc2)c(-n2cncn2)c1C1C2CCCN2C2(C(=O)Nc3ccc(Cl)cc32)C1C(=O)c1cccc([N+](=O)[O-])c1 (stereo unspecified)	6.25 (≈ 9.84 µM)		19
Cc1nn(-c2ccccc2)c(-n2cncn2)c1C1C2CCCN2C2(C(=O)Nc3ccc(Br)cc32)C1C(=O)c1ccc([N+](=O)[O-])cc1 (stereo unspecified)	6.25 (≈ 9.2 µM)		26.4
Cc1nn(-c2ccccc2)c(-n2cncn2)c1C1C2CCCN2C2(C(=O)Nc3ccccc32)C1C(=O)c1ccc(Cl)cc1 (stereo unspecified)	6.25 (≈ 10.6 µM)		16.9
Cc1nn(-c2ccccc2)c(-n2cncn2)c1C1C2CCCN2C2(C(=O)Nc3ccccc32)C1C(=O)c1cccc([N+](=O)[O-])c1 (stereo unspecified)	> 25		
Cc1nn(-c2ccccc2)c(-n2cncn2)c1C1C2CCCN2C2(C(=O)Nc3ccc(Br)cc32)C1C(=O)c1cccc([N+](=O)[O-])c1 (stereo unspecified)	6.25 (≈ 9.2 µM)		20.1
COc1ccc(C(=O)C2C(c3c(C)nn(-c4ccccc4)c3-n3cncn3)C3CCCN3C23C(=O)Nc2ccc(Br)cc23)cc1 (stereo unspecified)	25 (≈ 37.6 µM)		
Cc1nn(-c2ccccc2)c(-n2cncn2)c1C1C2CCCN2C2(C(=O)Nc3ccc(Cl)cc32)C1C(=O)c1ccc(Cl)cc1 (stereo unspecified)	1.56 (≈ 2.5 µM)		17.9
Cc1nn(-c2ccccc2)c(-n2cncn2)c1C1C2CCCN2C2(C(=O)Nc3ccc(Br)cc32)C1C(=O)c1ccccc1 (stereo unspecified)	3.12 (≈ 4.92 µM)		18.6
Cc1nn(-c2ccccc2)c(-n2cncn2)c1C1C2CCCN2C2(C(=O)Nc3ccc(Br)cc32)C1C(=O)c1ccc(Br)cc1 (stereo unspecified)	1.56 (≈ 2.19 µM)		22
Cc1ccc(C(=O)C2C(c3c(C)nn(-c4ccccc4)c3-n3cncn3)C3CCCN3C23C(=O)Nc2ccccc23)cc1 (stereo unspecified)	> 25		
Cc1nn(-c2ccccc2)c(-n2cncn2)c1C1C2CCCN2C2(C(=O)Nc3ccccc32)C1C(=O)c1ccc([N+](=O)[O-])cc1 (stereo unspecified)	6.25 (≈ 10.4 µM)		29.6
COc1ccc(C(=O)C2C(c3c(C)nn(-c4ccccc4)c3-n3cncn3)C3CCCN3C23C(=O)Nc2ccc(Cl)cc23)cc1 (stereo unspecified)	3.12 (≈ 5.03 µM)		21.6
Cc1ccc(C(=O)C2C(c3c(C)nn(-c4ccccc4)c3-n3cncn3)C3CCCN3C23C(=O)Nc2ccc(Cl)cc23)cc1 (stereo unspecified)	25 (≈ 41.4 µM)		
Cc1nn(-c2ccccc2)c(-n2cncn2)c1C1C2CCCN2C2(C(=O)Nc3ccc(Cl)cc32)C1C(=O)c1ccc(Br)cc1 (stereo unspecified)	1.56 (≈ 2.33 µM)		26.4
CC[C@@H](CO)NCCN[C@@H](CC)CO [ETHAMBUTOL]	1.56 (≈ 7.64 µM)		
